PubChem BioAssay (NCI)
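Results reflect a 48-hour exposure of cells in 96-well plates to compound at five concentrations. The concentration for full growth arrest is given as TGI.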 Where a SMILES comes first, the peptide text is derived from it. [ ]: non-standard residue; d: D form. The star is where a group is joined. Phe(4-NO2) = N[CH](Cc1ccc([N+](=O)[O-])cc1)C(=O)O; Boc = CC(C)(C)OC(=O)*

Experiments:
Assay in all cases: NCI tumour cell line growth inhibition, 48 h
OVCAR-4 ovarian = tested on: OVCAR-4 ovarian
786-0 renal = tested on: 786-0 renal
HOP-62 NSCLC = tested on: HOP-62 NSCLC
HCT-116 colon = tested on: HCT-116 colon
SK-MEL-2 melanoma = tested on: SK-MEL-2 melanoma
HCT-15 colon = tested on: HCT-15 colon
SK-MEL-28 melanoma = tested on: SK-MEL-28 melanoma
NCI-H226 lung = tested on: NCI-H226 lung
HL-60(TB) leukemia = tested on: HL-60(TB) leukemia
CAKI-1 renal = tested on: CAKI-1 renal
SN12C renal = tested on: SN12C renal
OVCAR-8 ovarian = tested on: OVCAR-8 ovarian
SF-295 CNS = tested on: SF-295 CNS
MCF7 breast = tested on: MCF7 breast
SW-620 colon = tested on: SW-620 colon
HOP-92 NSCLC = tested on: HOP-92 NSCLC
A498 renal = tested on: A498 renal
UACC-62 melanoma = tested on: UACC-62 melanoma
KM12 colon = tested on: KM12 colon

Structure (SMILES)	TGI (OVCAR-4 ovarian)	TGI (786-0 renal)	TGI (HOP-62 NSCLC)	TGI (HCT-116 colon)	TGI (SK-MEL-2 melanoma)	TGI (HCT-15 colon)	TGI (SK-MEL-28 melanoma)	TGI (NCI-H226 lung)	TGI (HL-60(TB) leukemia)	TGI (CAKI-1 renal)	TGI (SN12C renal)	TGI (OVCAR-8 ovarian)	TGI (SF-295 CNS)	TGI (MCF7 breast)	TGI (SW-620 colon)	TGI (HOP-92 NSCLC)	TGI (A498 renal)	TGI (UACC-62 melanoma)	TGI (KM12 colon)
O=C(c1ccccc1)N1CCC(Nc2nccs2)O1 (stereo not given)	> 10 µM	> 10 µM	> 10 µM	> 10 µM	> 10 µM	> 10 µM	> 10 µM	> 10 µM	> 10 µM	> 10 µM	> 10 µM	> 10 µM	> 10 µM	> 10 µM	> 10 µM	–	–	–	–
COC(=O)CCC(NC(=O)OC(C)(C)C)C(=O)NC(Cc1ccc([N+](=O)[O-])cc1)C(=O)NC(CCC(=O)OC)C(=O)OC (stereo not given) (Boc-Glu(OMe)-[Phe(4-NO2)]-Glu(OMe)-OMe; configuration not given here)	> 100 µM	> 100 µM	> 100 µM	> 100 µM	> 100 µM	> 100 µM	> 100 µM	> 100 µM	–	> 100 µM	> 100 µM	> 100 µM	> 100 µM	> 100 µM	> 100 µM	> 100 µM	> 100 µM	> 100 µM	> 100 µM
O=C(Nc1ncc([N+](=O)[O-])s1)c1ccccc1O	> 100 µM	> 100 µM	> 59.6 µM	46.4 µM	35.6 µM	> 86.9 µM	> 100 µM	27.1 µM	–	> 100 µM	77.7 µM	> 100 µM	46.5 µM	> 100 µM	> 100 µM	7.98 µM	> 100 µM	41.7 µM	68.7 µM
COCOc1c(C(OCOC)c2cnc(Sc3ccccc3)n2C)ccc(OC)c1OC (stereo not given)	> 100 µM	> 100 µM	> 100 µM	> 100 µM	> 100 µM	> 100 µM	> 100 µM	> 100 µM	> 100 µM	> 100 µM	> 100 µM	> 100 µM	> 100 µM	> 100 µM	> 100 µM	> 100 µM	–	> 100 µM	> 100 µM
Cc1cccc(C)c1N1C(=O)C2c3[nH]c4ccccc4c3C3CCC(C(C)(C)C)CC3C2C1=O (stereo not given)	–	20.8 µM	13.7 µM	21.3 µM	33.7 µM	24.2 µM	45.5 µM	41 µM	35.5 µM	26.8 µM	21.8 µM	37 µM	51.9 µM	–	21 µM	23.9 µM	37.6 µM	36.2 µM	–
C=C1CC(C)(COc2ccc3c(C)cc(=O)oc3c2)OC1=O (stereo not given)	9.06 µM	5.65 µM	28.4 µM	4.72 µM	5.18 µM	4.23 µM	9.02 µM	26.2 µM	3.94 µM	7.53 µM	16.8 µM	14.8 µM	16.3 µM	2.39 µM	3.09 µM	3.25 µM	–	4.8 µM	17.4 µM
NNc1ncc2c(n1)-c1ccccc1OC2	> 100 µM	> 100 µM	> 100 µM	> 100 µM	> 100 µM	> 100 µM	> 100 µM	> 100 µM	45.8 µM	> 100 µM	> 100 µM	> 100 µM	> 100 µM	> 100 µM	> 100 µM	> 100 µM	–	> 100 µM	> 100 µM
Cc1cccc(/C=N/NC(=S)N(C)CCc2ccccn2)n1	> 100 µM	> 100 µM	–	> 100 µM	> 100 µM	> 100 µM	> 100 µM	19.6 µM	–	32.7 µM	> 100 µM	> 59 µM	> 100 µM	> 100 µM	> 100 µM	> 83.9 µM	1.03 µM	1.02 µM	> 100 µM
O=c1oc2c/c(=C\c3ccccn3)c(=O)c3cccc1c3-2	> 100 µM	> 100 µM	39.2 µM	> 100 µM	–	> 100 µM	> 100 µM	> 100 µM	> 100 µM	> 100 µM	> 100 µM	54.4 µM	> 100 µM	> 100 µM	> 100 µM	> 100 µM	–	> 100 µM	> 100 µM
COc1ccc(/C=C2\CCc3cc(OC)c(OC)cc3C2=O)cc1	> 10 µM	> 10 µM	> 10 µM	> 10 µM	> 10 µM	> 10 µM	> 10 µM	> 10 µM	> 10 µM	> 10 µM	> 10 µM	> 10 µM	> 10 µM	> 10 µM	> 10 µM	> 10 µM	–	> 10 µM	> 10 µM
CCOC(=O)C(NC(=O)c1cccc(Cl)c1)(N1CCN(c2cc3c(cc2F)c(=O)c(C(=O)O)cn3C2CC2)CC1)C(F)(F)F (stereo not given)	39 µM	28.3 µM	50 µM	25.5 µM	29.8 µM	–	32.4 µM	40.3 µM	6.64 µM	36.2 µM	93.9 µM	60.7 µM	53.5 µM	–	27.2 µM	34.6 µM	55.7 µM	42.2 µM	23.9 µM
O=c1c2cc(S(=O)(=O)Nc3ccc(Cl)cc3Cl)ccc2ncn1NS(=O)(=O)c1cccc2ccccc12	> 100 µM	> 100 µM	> 100 µM	> 100 µM	> 100 µM	> 100 µM	> 100 µM	> 100 µM	37.5 µM	85.7 µM	> 100 µM	> 100 µM	> 100 µM	> 100 µM	> 100 µM	81.4 µM	–	> 100 µM	> 100 µM
Cc1ccc(/C=C2\NC(=S)N(CN3CCCCC3)C2=O)cc1	> 100 µM	> 100 µM	> 100 µM	> 100 µM	> 100 µM	> 100 µM	> 100 µM	> 100 µM	–	–	> 100 µM	> 100 µM	> 100 µM	> 100 µM	> 100 µM	94.4 µM	> 100 µM	> 100 µM	> 100 µM
